Laboratory results from paper PMC7766327, “Inhibition of Pneumolysin Cytotoxicity by Hydrolysable Tannins” (Antibiotics, 2020).
Read-outs that look alike come from different tables or passages of the source.

Key:
pneumolysin (Ply) [1] = molecular target: T1, pneumolysin (Ply) (Streptococcus pneumoniae serotype 2, UniProt Q04IN8); assay: cell-based; type: cell-based; details: for Inhibitor class in hemolysis inhibition assay: classification by IC50 from two-fold dilutions
T1 construct: made in house; host or cells: E. coli BL21(DE3)
Experimental: Native human erythrocytes were taken into EDTA tubes. The erythrocytes were washed three times with PBS (0.15 M NaCl, 2.7 mM KCl, 8.1 mM Na2HPO4 and 1.5 mM KH2PO4) by centrifugation at 700× g for 10 min. The purified erythrocytes were stored at +4 °C. Erythrocytes (1% v/v) in PBS were mixed with 1 nM Ply and dilution series of polyphenol inhibitors in 96-well microtiter plates. The reaction was incubated for 30 min at 37 °C. The plates were centrifuged, and the supernatant was pipetted into flat-bottomed microtiter plates to measure the absorbance at 570 nm (VICTOR X4, PerkinElmer, Turku, Finland) of the released hemoglobin from lysed erythrocytes. The absorbances of triplicate measurements are presented as a function of inhibitor concentration. The IC50 values were calculated with Origin data analysis software (2016, OriginLab Corporation, Northampton, MA, USA).

pneumolysin (Ply) [2] = molecular target: T1, pneumolysin (Ply); assay: Precipitation assay of pneumolysin-tannin interaction; type: binding; details: for Minimum Precipitating Concentration: 10 μM Ply, Na-acetate buffer pH 5.0, 25 °C, 30 min, absorbance 414 nm; for Precipitation Relative Power: fold compared to vescalagin (=1); for Fold higher precipitating concentration compared to hemolysis IC50: minimum precipitating concentration vs hemolysis IC50
Experimental: The precipitation assay with tannins was done as described previously with bovine serum albumin [22]. First, 10 μM of Ply and dilution series of polyphenols (5–1000 µM) were incubated in a Na-acetate buffer (200 mM NaCl and 50 mM CH3COONa; pH 5.0) at 25 °C for 30 min with shaking. The reactions were carried out in Multiskan Ascent plate reader (Labsystems, Vantaa, Finland) and the precipitation was measured at 414 nm. The minimum concentration precipitating Ply was calculated with Origin data analysis software (2016, OriginLab Corporation, Northampton, MA, USA).

Ply = test system: Ply; design: method as in PMID 15928084; details: cited from earlier work
pneumolysin (Ply) [3] = molecular target: T1, pneumolysin (Ply); assay: Pneumolysin oligomerization assay using erythrocytes; type: cell-based
Experimental: For the oligomerization assay, 100 nM Ply (3 µg), 1% (v/v) erythrocytes and 100 µM PGG in PBS were incubated for 2 min at 25 °C and were centrifuged at 16,000× g for 30 min at +7 °C. The pellet containing intact erythrocytes and the membranes from lysed cells were suspended into the water to complete the lysis and recentrifuged at 16,000× g for 30 min. The membranes were suspended into an SDS-PAGE sample buffer (60 mM Tris-HCl, pH 6.8; 2% SDS; 0.001% bromophenol blue; 0.5% β-mercaptoethanol) without incubation at 95 °C and the proteins were separated in 6% SDS-PAGE gel. The gel was stained with Coomassie blue (40% methanol; 10% acetic acid; 0.25% Brilliant blue R-250) and destained in 20% methanol and 5% acetic acid overnight. The proteins were transferred to polyvinyldifluoride (PVDF) membrane for 30 min, 25 V in SDS-PAGE running buffer (25 mM Tris, 190 mM glycine, 0.1% SDS) using the Trans-Blot Turbo Transfer System (Bio-Rad Laboratories Inc., Hercules, CA, USA). The membrane was blocked with 5% (w/v) defatted milk powder in TBS-Tween (10 mM Tris pH 7.5; 150 mM NaCl; 0.05% Tween 20) for 30 min at 25 °C. The His-tagged Ply was detected with anti-His antibody (1:5000 dilution, Sigma-Aldrich, St. Louis, MO, USA) and horseradish […] anti-mouse antibody (1:10,000 dilution, DakoCytomation, Glostrup, Denmark). […]

pneumolysin (Ply) [4] = molecular target: T1, pneumolysin (Ply); assay: A549 cell cytotoxicity assay (LDH release); type: cell-based; details: 2 nM Ply, A549 cells, 2 h
Experimental: For the A549 cell cytotoxicity assay, 5000 cells/well of A549 cells were grown in Dulbecco’s modified Eagle Medium, DMEM (Thermo Fischer Scientific Inc., Waltham, MA, USA), 2 mM glutamine and 10% fetal calf serum (FCS) for 48 h in 96-well microtiter plates. Cells were washed with PBS and dilutions of PGG (0, 125, 250, 500, 1000 and 2000 nM) and 2 nM Ply in PBS were added to the wells and they were incubated for 2 h at 37 °C in 5% CO2 atmosphere. Ply cytotoxicity was determined with the Cytotoxicity Detection Kit^PLUS (Roche Diagnostics GmbH, Mannheim, Germany) according to the manufacturer’s instructions. The released LDH was measured at A490. Complete lysis control was measured in the presence of 0.02% Triton X-100, and for background measurements, cells were incubated without Ply. The values were normalized by calculating using the equation (A490 Ply+inhibitor − A490 Background)/(A490 Triton X-100 − A490 Background)(1)

[5] = Hemolysis Inhibition IC50, 1 nM Ply, 1% human erythrocytes, 30 min 37 °C, logistic fit
[6] = IC50 (screening with hemolysis assays), estimated from the inhibition curves, two-fold dilutions of tannins

T1 sequence (Q04IN8 whole entry): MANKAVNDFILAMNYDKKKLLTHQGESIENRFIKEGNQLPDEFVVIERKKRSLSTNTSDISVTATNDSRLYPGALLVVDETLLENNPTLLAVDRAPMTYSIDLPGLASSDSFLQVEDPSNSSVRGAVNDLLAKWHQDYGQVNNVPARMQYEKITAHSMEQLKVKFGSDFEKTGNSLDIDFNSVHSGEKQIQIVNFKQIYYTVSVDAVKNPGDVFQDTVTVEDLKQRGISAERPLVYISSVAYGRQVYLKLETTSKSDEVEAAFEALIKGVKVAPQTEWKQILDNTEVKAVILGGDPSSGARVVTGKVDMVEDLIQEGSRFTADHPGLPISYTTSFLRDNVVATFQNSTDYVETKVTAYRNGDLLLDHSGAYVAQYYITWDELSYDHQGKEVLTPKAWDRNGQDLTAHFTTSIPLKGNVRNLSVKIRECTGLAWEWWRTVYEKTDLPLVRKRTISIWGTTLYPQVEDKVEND

| SMILES | Hemolysis Inhibition Inhibitory Power (pneumolysin (Ply) [1]) | IC50 (pneumolysin (Ply) [1]; [5]) | IC50 (pneumolysin (Ply) [1]; [6]) | Inhibitor class in hemolysis inhibition assay (pneumolysin (Ply) [1]) | Minimum Precipitating Concentration (pneumolysin (Ply) [2]) | Precipitation Relative Power (pneumolysin (Ply) [2]) | Fold higher precipitating concentration compared to hemolysis IC50 (pneumolysin (Ply) [2]) | also measured |
| --- | --- | --- | --- | --- | --- | --- | --- | --- |
| O=C(O[C@@H]1O[C@@H]2COC(=O)c3cc(O)c(O)c(O)c3-c3c(cc(O)c(O)c3O)C(=O)O[C@H]2[C@H](OC(=O)c2cc(O)c(O)c(O)c2)[C@H]1OC(=O)c1cc(O)c(O)c(O)c1)c1cc(O)c(O)c(Oc2c(C(=O)O[C@H]3O[C@@H]4COC(=O)c5cc(O)c(O)c(O)c5-c5c(cc(O)c(O)c5O)C(=O)O[C@H]4[C@@H]4OC(=O)c5cc(O)c(O)c(O)c5-c5c(cc(O)c(O)c5O)C(=O)O[C@@H]34)cc(O)c(O)c2O)c1 [Gemin A] | 5.9 | 41 ± 1 nM | 20 nM | potent (potent inhibitors (IC50 10–30 nM)) | 6.2 µM | 130 | 150 fold | – |
| O=C(O[C@H]1[C@@H]2OC(=O)c3cc(O)c(O)c(O)c3-c3c4cc(c(O)c3O)Oc3c(cc(O)c(O)c3O)C(=O)O[C@H]3C(O)O[C@@H]5COC(=O)c6cc(O)c(O)c(O)c6-c6c(cc(c(O)c6O)Oc6c(cc(O)c(O)c6O)C(=O)O[C@H]1C(O)O[C@@H]2COC4=O)C(=O)O[C@H]5[C@@H]3OC(=O)c1cc(O)c(O)c(O)c1)c1cc(O)c(O)c(O)c1 (some centres unmarked) [Oenothein B] | 4.4 | 55 ± 2.1 nM | 60 nM | moderate (moderate inhibitors (IC50 40–90 nM)) | 510 µM | 1.6 | 9300 fold | – |
| O=C1OCC2OC(=O)c3cc(O)c(O)c(O)c3-c3c(O)c(O)c(O)c4c3C(=O)OC(C2OC(=O)c2cc(O)c(O)c(O)c2-c2c1cc(O)c(O)c2O)C1OC(=O)c2c-4c(O)c(O)c(O)c2C1O (centres unmarked) [Vescalagin] | – | 240 ± 5.3 nM | > 100 nM | weak (negative or weak inhibitors (IC50 ≥ 100 nM)) | 820 µM | 1 | 3400 fold | Hemolysis Inhibition Inhibitory Power (pneumolysin (Ply) [1]; relative to IC50 of vescalagin (=1)): 1 |
| O=C(O[C@@H]1Cc2c(O)cc(O)cc2O[C@@H]1c1cc(O)c(O)c(O)c1)c1cc(O)c(O)c(O)c1 [EGCG, epigallocatechin gallate] | – | – | – | – | – | – | – | Concentration required for inhibition of Ply hemolytic activity (Ply): micromolar concentrations were required |
| O=C(O[C@H]1[C@@H]2OC(=O)c3cc(O)c(O)c(O)c3-c3c(cc(O)c(O)c3O)C(=O)OC[C@H]2OC(O)[C@@H]1OC(=O)c1cc(O)c(O)c(O)c1)c1cc(O)c(O)c(O)c1 (some centres unmarked) [Tellimagrandin I] | – | – | 60 nM | – | – | – | – | – |
| O=C(O[C@@H]1O[C@@H]2COC(=O)c3cc(O)c(O)c(O)c3-c3c(cc(O)c(O)c3O)C(=O)O[C@H]2[C@H](O)[C@H]1OC(=O)c1cc(O)c(O)c(O)c1)c1cc(O)c(O)c(O)c1 [1,2,-di-O-galloyl-4,6-HHDP-β-D-glucose] | – | – | 70 nM | – | – | – | – | – |
| O=C(OC[C@H]1O[C@@H](OC(=O)c2cc(O)c(O)c(O)c2)[C@H](OC(=O)c2cc(O)c(O)c(O)c2)[C@@H](OC(=O)c2cc(O)c(O)c(O)c2)[C@@H]1OC(=O)c1cc(O)c(O)c(O)c1)c1cc(O)c(O)c(O)c1 [PGG, 1,2,3,4,6-penta-O-galloyl-β-D-glucose] | 13 | 18 ± 0.7 nM | 10 nM | potent (potent inhibitors (IC50 10–30 nM)) | 14 µM | 58 | 770 fold | Ply oligomer complex on erythrocytes (pneumolysin (Ply) [3]; 100 µM PGG, 100 nM Ply, Coomassie-stained SDS-PAGE): abolished; Concentration that still inhibited Ply oligomerization (pneumolysin (Ply) [3]; dilution series of PGG (0–100 µM), Western blotting with anti-His antibody): 30 µM; inhibition at 0.5 µM (pneumolysin (Ply) [4]; 500 nM PGG, compared to pneumolysin alone): 60%; inhibition at 1 µM (pneumolysin (Ply) [4]; 1000 nM PGG, compared to pneumolysin alone): 87%; inhibition at 2 µM (pneumolysin (Ply) [4]; 2000 nM PGG, compared to pneumolysin alone): 90%; Inhibition of LDH release (pneumolysin (Ply) [4]; ≤250 nM PGG): moderate inhibition |
| O=C(O[C@@H]1COC(=O)c2cc(O)c(O)c(O)c2-c2c(cc(O)c(O)c2O)C(=O)O[C@H]1[C@@H]1OC(=O)c2cc(O)c(O)c(O)c2-c2c(O)c(O)c(O)c3c2C(=O)O[C@H]1[C@@H]3O)c1cc(O)c(O)c(O)c1 [Casuarinin] | – | – | 90 nM | – | – | – | – | – |
